Values joined by “and” are separate entries in the source; they are usually repeats but may differ in a detail not shown here. Equal values may be shown once. Toxic doses and inconclusive results are not listed.

In this experiment the test system is P388 leukemia ip, CD2F1 mice, survival T/C. The experiment can be described thus: NCI In Vivo Anticancer Drug Screen. Data for tumor model P388 Leukemia (intraperitoneal) in CD2F1 (CDF1) mice. The note with it: endpoint: median survival time, higher = longer survival. The procedure, abridged:
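Mice carrying the transplanted tumor received test compound or vehicle. Survival was recorded in each group, and the value is the treated-group measurement divided by that of the vehicle-treated control group.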

[1] abbreviates: dose: 12.5 mg/kg/injection, schedule: Q01DX005 (ip), vehicle: Klucel (hydroxypropylcellulose) (HPC).
The mark [2] stands for this setting: dose: 25.0 mg/kg/injection, schedule: Q01DX005 (ip), vehicle: Klucel (hydroxypropylcellulose) (HPC).
[3] abbreviates: dose: 50.0 mg/kg/injection, schedule: Q01DX005 (ip), vehicle: Klucel (hydroxypropylcellulose) (HPC).
Where [4] appears, read: dose: 50.0 mg/kg/injection, schedule: Q01DX009 (ip), vehicle: saline.
Setting [5] is: dose: 100.0 mg/kg/injection, schedule: Q01DX009 (ip), vehicle: saline.
[6] abbreviates: dose: 200.0 mg/kg/injection, schedule: Q01DX009 (ip), vehicle: saline.
Where [7] appears, read: dose: 50.0 mg/kg/injection, schedule: Q01DX009 (ip), vehicle: saline with Tween-80.
The mark [8] stands for this setting: dose: 100.0 mg/kg/injection, schedule: Q01DX009 (ip), vehicle: saline with Tween-80.
The mark [9] stands for this setting: dose: 50.0 mg/kg/injection, schedule: Q01DX005 (ip), vehicle: saline.
[10] abbreviates: dose: 100.0 mg/kg/injection, schedule: Q01DX005 (ip), vehicle: saline.
[11] abbreviates: dose: 200.0 mg/kg/injection, schedule: Q01DX005 (ip), vehicle: saline.
Where [12] appears, read: dose: 25.0 mg/kg/injection, schedule: Q01DX009 (ip), vehicle: saline with Tween-80.
The mark [13] stands for this setting: dose: 12.5 mg/kg/injection, schedule: Q01DX009 (ip), vehicle: saline with Tween-80.
[14] abbreviates: dose: 60.0 mg/kg/injection, schedule: Q01DX005 (ip), vehicle: saline with Tween-80.
The mark [15] stands for this setting: dose: 120.0 mg/kg/injection, schedule: Q01DX005 (ip), vehicle: saline with Tween-80.
Where [16] appears, read: dose: 240.0 mg/kg/injection, schedule: Q01DX005 (ip), vehicle: saline with Tween-80.

Consider `C[N+]1=C(/C=C/Nc2cccc(N/C=C/C3=[N+](C)c4ccccc4C3(C)C)c2)C(C)(C)c2ccccc21`, for which the T/C reads like this: under setting [1], 97 % of control; under setting [2], 97 % of control; under setting [3], 105 % of control.
On to `O=[N+]([O-])c1cccnc1Sc1nc2ccccc2[nH]1`, for which the T/C is 96 % of control under setting [4], 101 % of control under setting [5] and 101 % of control under setting [6].
Take `CC1=NN(C(=O)c2ccncc2)C(=O)C1N=Nc1ccc(C)c([N+](=O)[O-])c1` (stereo not drawn): the T/C was 107 % of control under setting [7]; 101 % of control under setting [8]; 97 % of control (dose: 200.0 mg/kg/injection, schedule: Q01DX009 (ip), vehicle: saline with Tween-80).
In the case of `O=C(O)C[n+]1cccc2ccccc21`, the T/C reads like this: under setting [9], 103 % of control; under setting [10], 93 % of control; under setting [11], 87 % of control.
On to `CCCCc1ccc(-n2c(C)c(COC(=O)NC)c(COC(=O)NC)c2C)cc1`, for which the T/C (dose: 12.5 mg/kg/injection, schedule: Q01DX009 (ip), vehicle: Klucel (hydroxypropylcellulose) (HPC)) was 172 % of control and 190 % of control; the T/C (dose: 25.0 mg/kg/injection, schedule: Q01DX009 (ip), vehicle: Klucel (hydroxypropylcellulose) (HPC)) was 152 % of control and 190 % of control.
Turning to `OCCOc1ccc2ccccc2c1-c1c(OCCOc2ccc3ccccc3c2-c2c(OCCO)ccc3ccccc23)ccc2ccccc12`, the T/C was 96 % of control (dose: 100.0 mg/kg/injection, schedule: Q01DX001 (ip), vehicle: saline with Tween-80); 88 % of control (dose: 200.0 mg/kg/injection, schedule: Q01DX001 (ip), vehicle: saline with Tween-80); 92 % of control (dose: 400.0 mg/kg/injection, schedule: Q01DX001 (ip), vehicle: saline with Tween-80).
For the compound `OC/C(Cl)=C(\Cl)CO`, the T/C reads like this: (dose: 6.25 mg/kg/injection, schedule: Q01DX009 (ip), vehicle: saline) 110 % of control; (dose: 12.5 mg/kg/injection, schedule: Q01DX009 (ip), vehicle: saline) 95 % of control; (dose: 25.0 mg/kg/injection, schedule: Q01DX009 (ip), vehicle: saline) 100 % of control.
For `N#CC(C#N)=Cc1ccc2c(c1)CCC2`, the T/C is 90 % of control under setting [12], 95 % of control under setting [7] and 109 % of control under setting [8].
Turning to `NNC(=O)C(=O)NCc1ccco1`, the T/C by setting is: under setting [13], 88 % of control; under setting [12], 98 % of control; under setting [7], 95 % of control.
For the compound `C(=N\NC1=NCCN1)/c1ccc(-c2cn3cc(/C=N/NC4=NCCN4)ccc3n2)cc1`, the T/C under setting [14] was 112 % of control.
In the case of `CC(C)OC(=O)Nc1ccccc1Cl`, the T/C under setting [13] was 104 % of control, the T/C under setting [12] is 100 % of control and the T/C under setting [7] is 109 % of control.
For `C/C(=N\NC(=S)N1CCCCCC1)c1cc2ccccc2cn1`, the T/C reads like this: (dose: 3.12 mg/kg/injection, schedule: Q01DX005 (ip), vehicle: distilled water + Tween-80 + alcohol) 100 % of control; (dose: 6.25 mg/kg/injection, schedule: Q01DX005 (ip), vehicle: Klucel (hydroxypropylcellulose) (HPC)) 117 % of control; (dose: 6.25 mg/kg/injection, schedule: Q01DX005 (ip), vehicle: distilled water + Tween-80 + alcohol) 111 % of control; under setting [1], 116 % of control; (dose: 12.5 mg/kg/injection, schedule: Q01DX005 (ip), vehicle: distilled water + Tween-80 + alcohol) 105 % of control; under setting [2], 121 % of control. The T/C (dose: 25.0 mg/kg/injection, schedule: Q01DX005 (ip), vehicle: distilled water + Tween-80 + alcohol) was 118 % of control.
As to `CCCCCCCCC(C(=O)N/N=C(\C)c1ccccc1)C(=O)N/N=C(\C)c1ccccc1`, the T/C under setting [4] was 101 % of control, the T/C under setting [5] is 105 % of control and the T/C under setting [6] was 100 % of control.
Consider `O=c1[nH]cnc2nc(/N=N/SCCO)[nH]c12`, for which the T/C under setting [2] is 104 % of control; the T/C under setting [3] is 110 % of control; the T/C (dose: 100.0 mg/kg/injection, schedule: Q01DX005 (ip), vehicle: Klucel (hydroxypropylcellulose) (HPC)) is 119 % of control.
Take `CN(C)c1ccc(/C(O)=C\c2ncnc3ccccc23)cc1`: the T/C is 94 % of control under setting [14], 94 % of control under setting [15] and 93 % of control under setting [16].
Turning to `CCOC(=O)/C=C(/CC(=O)OCC)OCC`, the T/C was 100 % of control under setting [4]; 89 % of control under setting [5]; 90 % of control under setting [6]; 101 % of control (dose: 400.0 mg/kg/injection, schedule: Q01DX009 (ip), vehicle: saline).
In the case of `O=C(Oc1ccccc1)N1CCOCC1`, the T/C was 96 % of control (dose: 50.0 mg/kg/injection, schedule: Q01DX009 (ip), vehicle: other); 102 % of control (dose: 100.0 mg/kg/injection, schedule: Q01DX009 (ip), vehicle: other); 112 % of control (dose: 200.0 mg/kg/injection, schedule: Q01DX009 (ip), vehicle: other).
With `CC(=O)C1C(=O)C(=O)N(c2ccc(C)cc2C)C1=O` (stereo not drawn), the T/C (dose: 50.0 mg/kg/injection, schedule: Q01DX009 (ip), vehicle: Klucel (hydroxypropylcellulose) (HPC)) was 105 % of control; the T/C (dose: 100.0 mg/kg/injection, schedule: Q01DX009 (ip), vehicle: Klucel (hydroxypropylcellulose) (HPC)) is 114 % of control; the T/C (dose: 200.0 mg/kg/injection, schedule: Q01DX009 (ip), vehicle: Klucel (hydroxypropylcellulose) (HPC)) is 110 % of control.
On to `COC(=O)c1nn(Cc2ccccc2)cc1C=O`, for which the T/C was 99 % of control under setting [14], 92 % of control under setting [15] and 92 % of control under setting [16].
Take `Cc1cccc(C)c1NC1=C(Cl)C(=O)c2ccccc2C1=O`: the T/C was 103 % of control (dose: 3.75 mg/kg/injection, schedule: Q01DX005 (ip), vehicle: saline with Tween-80); 97 % of control (dose: 7.5 mg/kg/injection, schedule: Q01DX005 (ip), vehicle: saline with Tween-80); 100 % of control (dose: 15.0 mg/kg/injection, schedule: Q01DX005 (ip), vehicle: saline with Tween-80).
On to `C[C@H]1C(=O)OCN1C(=O)OCc1ccccc1`, for which the T/C is 100 % of control under setting [14], 100 % of control under setting [15] and 95 % of control under setting [16].
Turning to `O=CN(CCC(=O)O)c1ccccc1`, the T/C is 106 % of control under setting [9], 113 % of control under setting [10] and 107 % of control under setting [11].

These data come from PubChem BioAssay AID330 (DTP/NCI, 2004).
